# Laboratory results taken from patent publication US8987334B2, “Cosmetic and pharmaceutical formulations of calixarene molecules” (priority 2008, dated 2015).
# Test: Transcutaneous passage kinetics of calixarene in Franz cell
# Type: in vitro ADME, pig
# Details: released from 1 ml nanoemulsion loaded with 4 mg/g calixarene; 24 hours exposure; occlusive; HPLC LD=17 ng/ml, LQ=52 ng/ml
substance,measurement,value
"1,3,5-O-Me-2,4,6-OCH2COOH-p-tert-butylcalix[6]arene [calixarene]",transcutaneous passage of calixarene,did not pass through the skin
